# Results taken from patent US20040143021A1, “Compositions and methods for improving recovery after general anesthesia” (priority 2003, published 2004).
# Tests used:
# sleep-deprived pilots = conditions: in vivo; cited from earlier work
# [1] = test system: patients scheduled for same day surgery under general anesthesia; assay: Randomized, double blind, parallel group clinical study of modafinil vs placebo on recovery after general anesthesia (symptom evaluation by verbal analog scale); type: in vivo; conditions: for Appetite, verbal analog score, mean (SD) / Ease of sleep, verbal analog score, mean (SD) / Energy, verbal analog score, mean (SD) / Exhaustion, verbal analog score, mean (SD) / Fatigue, verbal analog score, mean (SD) / Nausea, verbal analog score, mean (SD) / Reading ability, verbal analog score, mean (SD) / Restless, verbal analog score, mean (SD) / Tense, verbal analog score, mean (SD) / Worn out, verbal analog score, mean (SD): VAS 0 to 10; for Operative distress, point value: total of 60 possible points
# Source text: Informed consents were obtained from patients scheduled to undergo outpatient surgical procedures under general anesthesia to participate in this prospective study approved by an institutional review board. In this study, the clinical activity of modafinil to improve recovery post-anesthesia was examined in a randomized, double blind, parallel group study. Thirty-four (34) patients scheduled for same day surgery under general anesthesia participated in this prospective study. Patients were American Society of Anesthesiology physical status I-II, with a Body-Mass-Index <40 without any known significant renal, hepatic, cardiovascular, neurological, gastrointestinal, endocrine, hematologic, or pulmonary diseases as judged by the investigator. A history of epilepsy, alcoholism, or chronic use of opioids also excluded the patients from participation in this study. Patients were asked to rate various symptoms they had experienced over the previous 24-hour period using a verbal analog scale (VAS) rating of 0 to 10, as well as discrete scores when indicated. The symptom evaluation included headache, dizziness, level of energy, appetite, nausea, pain, vomiting, degree of being tense, clear-headedness, restlessness, fatigue, exhaustion, quality of sleep during the previous night, need for the help from a caregiver, the ability to read, comprehend, and communicate.
# Anesthetic management of the patients was at the discretion of the attending anesthesiologist. Patients were monitored post-operatively, and cared for according to institutional standards. Once the patient was able to tolerate oral intake of liquids, the study drug (modafinil, 200 mg) or placebo was administered, randomly, with a sip of water. Patients were discharged according to institutional standards. Patients were contacted 24 (+1) hours after dosing for symptom evaluation and the same questions were asked. Patients were also asked whether the study drug they received had any beneficial effect. If the patient felt they received a benefit from the study drug they were asked to describe the benefit in their own words.
# The study group included 24 female and 10 male patients (n=17 per group). The demographics of the groups are shown below in Table 1. There were no significant differences in age, height, weight, or gender distribution between the two groups.
# Almost all patients had received the same type of anesthetic management including propofol, a narcotic, a volatile agent, a muscle relaxant, nitrous oxide, and oxygen. Patients had undergone mostly orthopedic or gynecological surgical procedures. Surgical procedures or the exact doses of anesthetics were not compared between the groups.
# There were no significant differences in preoperative symptoms reported between the two groups (modafinil versus placebo; Table 2). As expected, patients were tenser, more restless, and less relaxed pre-operatively (in both groups). […] Operative distress was defined as a lack of energy, presence of feeling worn out, fatigue, exhaustion, mental clouding, and problem reading (comprehending) (total of 60 possible points to define the most severe Operative distress). In the modafinil group, the point value for operative distress was 10.5±6.0, preoperatively, increasing to 11.3±9.1, postoperatively. The corresponding values for operative distress in the placebo group were 13.4±11.9, pre-operatively, and 21.0±13.8, post-operatively.
# [2] = test system: patients with excessive daytime sleepiness associated with narcolepsy; conditions: clinical trials, 200 mg/d and 400 mg/d; cited from earlier work
# [3] = post-operative minus pre-operative, modafinil 200 mg
# [4] = post-operative, 24 h after modafinil 200 mg oral, n = 17
# [5] = pre-operative (before dosing), n = 17
# [6] = share of patients, modafinil 200 mg, n = 17
smiles,measurement,setting,value
NC(=O)C[S+]([O-])C(c1ccccc1)c1ccccc1 (stereo not drawn) [Modafinil],Fatigue and confusion in sleep-deprived pilots,sleep-deprived pilots,reduce fatigue and confusion
same,"Patients expressing themes of ""alertness"" and ""energy"" as benefit of study drug","[1]; content analysis of comments, modafinil group, p<0.05 vs 18% placebo",71%
same,Exhaustion postoperatively compared with placebo,[1]; modafinil 200 mg vs placebo,significantly less exhausted
same,Fatigue postoperatively compared with placebo,[1]; modafinil 200 mg vs placebo,significantly less fatigue
same,Feeling worn out postoperatively compared with placebo,[1]; modafinil 200 mg vs placebo,significantly less worn out
same,Feelings of alertness and energy in patients recovering from general anesthesia,[1]; modafinil 200 mg vs placebo,"significantly improved feelings of alertness, and energy"
same,Post-operative distress compared with placebo,[1]; modafinil 200 mg vs placebo,significantly less post-operative distress
same,Patients complaining of not being able to fall asleep at night,"[1]; modafinil group (n = 17), four in placebo group",one
same,Patients complaining of moderate-to-severe fatigue,[1]; modafinil treatment group vs 65% placebo,12%
same,"Appetite, verbal analog score, difference",[1]; [3],−1.8
same,"Ease of sleep, verbal analog score, difference",[1]; [3],−0.3
same,"Energy, verbal analog score, difference",[1]; [3],−1.3
same,"Exhaustion, verbal analog score, difference",[1]; [3],0.2
same,"Fatigue, verbal analog score, difference",[1]; [3],−0.2
same,"Nausea, verbal analog score, difference",[1]; [3],1.3
same,"Reading ability, verbal analog score, difference",[1]; [3],0.2
same,"Restless, verbal analog score, difference",[1]; [3],−2.0
same,"Tense, verbal analog score, difference",[1]; [3],−3.2
same,"Worn out, verbal analog score, difference",[1]; [3],−0.6
same,"Appetite, verbal analog score, mean (SD)",[1]; [4],6.1 (3.8)
same,"Ease of sleep, verbal analog score, mean (SD)",[1]; [4],6.2 (3.6)
same,"Energy, verbal analog score, mean (SD)",[1]; [4],6.2 (3.5)
same,"Exhaustion, verbal analog score, mean (SD)",[1]; [4],2.4 (3.1)
same,"Fatigue, verbal analog score, mean (SD)",[1]; [4],1.4 (1.8)
same,"Nausea, verbal analog score, mean (SD)",[1]; [4],1.9 (3.5)
same,"Reading ability, verbal analog score, mean (SD)",[1]; [4],9.2 (1.6)
same,"Restless, verbal analog score, mean (SD)",[1]; [4],2.5 (3.0)
same,"Tense, verbal analog score, mean (SD)",[1]; [4],2.2 (3.2)
same,"Worn out, verbal analog score, mean (SD)",[1]; [4],2.9 (2.4)
same,"Mental limitation to resume activity, verbal analog score, mean (SD)",[1]; [4],0.6 (1.6)
same,"Operative distress, point value","[1]; postoperatively, modafinil 200 mg",11.3±9.1
same,"Appetite, verbal analog score, mean (SD)",[1]; [5],7.9 (2.9)
same,"Ease of sleep, verbal analog score, mean (SD)",[1]; [5],6.5 (3.3)
same,"Energy, verbal analog score, mean (SD)",[1]; [5],7.5 (2.8)
same,"Exhaustion, verbal analog score, mean (SD)",[1]; [5],2.2 (3.3)
same,"Fatigue, verbal analog score, mean (SD)",[1]; [5],1.6 (2.7)
same,"Nausea, verbal analog score, mean (SD)",[1]; [5],0.6 (2.4)
same,"Reading ability, verbal analog score, mean (SD)",[1]; [5],9.0 (2.1)
same,"Restless, verbal analog score, mean (SD)",[1]; [5],4.5 (3.7)
same,"Tense, verbal analog score, mean (SD)",[1]; [5],5.4 (3.6)
same,"Worn out, verbal analog score, mean (SD)",[1]; [5],3.5 (3.4)
same,"Operative distress, point value","[1]; preoperatively, modafinil group",10.5±6.0
same,"Fatigue, % with rating > 3",[1]; [6],18%
same,"Fatigue, % with rating ≧ 5",[1]; [6],12%
same,"Worn out, % with rating > 3",[1]; [6],41%
same,"Worn out, % with rating ≧ 5",[1]; [6],29%
same,Daytime wakefulness,[2],significantly improve daytime wakefulness
same,Effect on nighttime sleep,[2],without affecting nighttime sleep
